Several values for one entry are separate records, joined by “and”; a condition that tells them apart may be missing. Equal values may be shown once. Read-outs that look alike come from different tables or passages of the source.
Assays:
[1] = tested on: human sarcoma cell line HT-1080; assay: In vitro cytotoxicity against HT-1080, XTT/PMS cell viability assay
[2] = tested on: MTX-sensitive HT-1080 tumor xenograft; assay: Tumor response (in vivo surviving fraction) with leucovorin rescue, HT-1080 xenograft; design: species or system athymic nude mice
Experimental: At 6 hours post 3′-fluoromethotrexate administration mice received i.p. hydration of 1.0 cc normal saline and at 24 hours received leucovorin (Bedford Laboratories, Bedford, Ohio) rescue therapy (36). This protocol allows the mice to survive what would otherwise be a fatal dosage of 3′-fluoromethotrexate and is analogous to that used in high-dose MTX therapy in humans. Tumor growth was monitored post-therapy.
The 3 perpendicular axes of the tumor were measured with a micrometer and the tumor volume modeled as a spheroid, i.e., v=π/6a·b·c, where a, b, c are the dimensions of the tumor axes in cm.
The parameter DT0 is the mean doubling time of the untreated, control group for each xenograft tumor model and TGD is the tumor growth delay for the treated tumor (the difference in tumor doubling time between the treated tumor and DT0).
Analysis of the tumor growth post-therapy allows for a comparison of the efficacy of MTX and 3′-fluoromethotrexate in terms of SF, the fraction of cells in the pretreatment tumor surviving therapy (Eqn. 3).

Row | Compound | IC50 ([1]; Homo sapiens, HT-1080, 24 h, read-out: IC50 for 24 h drug exposure, normal medium = RPMI-1640 medium + 10% FCS, 24 h exposure) [nM] | IC50 ([1]; Homo sapiens, HT-1080, 24 h, read-out: IC50 for 24 h drug exposure, treated medium = thymidine-free RPMI-1640 + 10% FCS, 24 h exposure) [nM] | SF, in vivo surviving fraction ([2]; 200 mg/kg, HT-1080 model) | SF, in vivo surviving fraction ([2]; 400 mg/kg i.v. bolus, HT-1080 model) | IC50 ([1]; read-out: IC50 for 24 h drug exposure, normal medium = RPMI-1640 medium + 10% FCS, 24 h exposure) [nM] | IC50 ([1]; read-out: IC50 for 24 h drug exposure, treated medium = thymidine-free RPMI-1640 + 10% FCS, 24 h exposure) [nM] | SF, in vivo surviving fraction ([2]; mouse, in vivo)
1 | CN(Cc1cnc2nc(N)nc(N)c2n1)c1ccc(C(=O)N[C@@H](CCC(=O)O)C(=O)O)cc1 [MTX, methotrexate] | 445 ± 148 | 69 ± 19 | 0.64±0.08 | 0.56±0.07 |  |  | 
2 | N-(2-Fluoro-4-amino-4-deoxy-N-methyl-pteroyl)-L-glutamic acid [FMTX] |  |  |  |  | 345 ± 117 | 26 ± 5 | 0.29±0.06 and 0.42±0.04
